The source of these data is patent US11331330B2, “Phytochemical-antibiotic combination for the treatment of a bacterial infection” (University of Saskatchewan, priority 2018, dated 2022).

In brackets after ≈: the same amount, converted by molar mass. Entries after “also recorded” stand apart in the source; their conditions may differ.

Experiment [1] deals with Mannheimia haemolytica ATCC 29702. As to the kind of experiment: MIC by standard broth micro dilution assay (CLSI). Particulars: ATCC29702, M. haemolytica, BHIB, 37° C., 18-24 h. It is filed as cell-based. The procedure: (§1) The bacterial strains of Mannheimia haemolytica ATCC 29702 and Pasteurella multocida ATCC 43137 were purchased from American Type Culture Collection (ATCC) distributor CEDARLANE Corporation, Burlington, Ontario, Canada and revived according to the manufacturer's instruction. Bacteria were grown in Brain Heart Infusion broth (BHIB).
(§2) MIC of tulathromycin and gallic acid against Mannheimia haemolytica and Pasteurella multocida was determined by using standard broth micro dilution assay as outlined by CLSI (Richard S, Lynn S-M, Avery C G. Antimicrobial susceptibility testing protocols. New York: CRC Press; 2007). Strains were sub-cultured in Brain Heart Infusion Broth (BHIB), incubated at 37° C. overnight and bacterial suspension OD was adjusted with the media to 0.5 McFarland turbidity as per CLSI protocol (Approx. cell density 1.5×10^8 CFU/mL) using normal saline as control. 100 μl of broth was added to each well (including positive control wells) and then serial dilution of tulathromycin (5 to 0.04 μg/ml) and gallic acid (500 to 3.9 μg/ml) was executed. 5 μl of bacterial sample was added to all the wells except the positive control well. […] Plates were then incubated at 37° C. for 18-24 h and were subsequently read automatically by using 96 well plate reader (BIORAD iMark Microplate Reader) at 655 nm. The readings were double checked manually using the Sensititre Vizion System.

The test system of experiment [2] is Pasteurella multocida ATCC 43137. As to the kind of experiment: MIC by standard broth micro dilution assay (CLSI). Conditions: ATCC43137, P. multocida, BHIB, 37° C., 18-24 h. It is filed as cell-based. The method, then:
as §1, §2

The subject of experiment [3] is co-culture of M. haemolytica and P. multocida. In words: MIC against the co-culture. It is filed as cell-based. The method, then:
MIC of tulathromycin, gallic acid and its combinations were determined against the co-culture of M. haemolytica and P. multocida. The overnight grown cultures of M. haemolytica and P. multocida were adjusted to 0.5 McFarland standard turbidity in BHIB, and then equal proportion of each of the cultures was added in the 96 well plates. After the addition of serially diluted drugs, the plates were incubated at 37° C. overnight and read as of above.

For experiment [4], the system named is M. haemolytica ATCC 29702. As to the kind of experiment: Synergy studies, checker board serial dilution. It is filed as cell-based, Mannheimia haemolytica. Conditions: gallic acid alone, 3.9 μg/ml dose. The method, then:
(§3) For the drug interaction studies, gallic acid was mixed with tulathromycin to test the drug interactions between tulathromycin and gallic acid. This was done by a checker board serial dilution technique performed in 96-well polypropylene plates (as explained elsewhere, for example, in [11]). The fractional inhibitory concentration (FIC) index of the combinations of antimicrobial compounds was calculated according to the equation: FIC index=FICA+FICB=A/MICA+B/MICB where A (gallic acid) and B (Tulathromycin) are the MICs of compound A and compound B in combination. MICA and MICB are the MICs of compound A and compound B, separately, FICA and FICB are the FICs of compound A and compound B (Hal M J J Antimicrob Chemother. 1983 May; 11(5):427-33). Results (a) Antimicrobial Activity of Tulathromycin and Gallic Acid
(§4) • FICA, FICB—Fractional inhibitory concentration of drug A & B respectively. • MICA, MICB—Minimum inhibitory concentration of drug A & B respectively. • [A], [B]—Concentration of drug A & B respectively. • The FIC indexes were interpreted as follows: synergy is defined as ≤0.5; additivity is defined as 0.5<4.0; and antagonism is defined as >4. (d) Resistance Generation Study Results

The next experiment has as its system P. multocida ATCC 43137. In words: Synergy studies, checker board serial dilution. It is filed as cell-based, Pasteurella multocida. Conditions: gallic acid alone, 3.9 μg/ml dose. The procedure: as §3, §4
Another experiment deals with M. haemolytica. As to the kind of experiment: Resistance generation study. It is filed as cell-based, Mannheimia haemolytica. Conditions: sub-MIC (1/2 MIC) doses, stress generation conditions. The procedure: (§5) For the resistance generation studies, M. haemolytica and P. multocida were cultured in the presence of sub-MIC doses (1/2 MIC) of tulathromycin and gallic acid individually until they reach 1 unit OD at 565 nm. The bacterial cells were then given antibiotic stress relaxation by culturing them in BHIB till 1 OD unit of turbidity is reached at 565 nm. This first pass cycle of culturing in sub-MIC dose of tulathromycin, and relaxing in BHIB is considered as 1st generation (1G-TulathromycinA). The cycle as above was repeated to obtain 2nd and 3rd generation of bacterial cultures. Subsequently, MIC assays were performed with all the three generations of the two bacterial strains to evaluate the level of sensitivity towards tulathromycin. The experiments were repeated with gallic acid.
(§6) Bacteria were treated individually with sub-MIC dose (½ MIC) of tulathromycin and gallic acid with alternate relaxation of stress in BHIB for […] each. Each 24 hrs treatment was considered as 1 generation (24 hrs drug+24 hrs of BHIB).

The next experiment relates to P. multocida. As to the kind of experiment: Resistance generation study. It is filed as cell-based, Pasteurella multocida. Conditions: sub-MIC (1/2 MIC) doses, stress generation conditions. The procedure:
as §5, §6

A further experiment addresses arginase. Conditions: arginase inhibitor; cited from earlier work.

In the case of `O=C(O)c1cc(O)c(O)c(O)c1` [gallic acid], the minimal inhibitory concentration (MIC) in experiment [1] is 250 µg/mL (≈ 1470 µM); in experiment [2] it was 500 µg/mL (≈ 2940 µM); in experiment [3], 500 µg/mL. The “maximum reduction in bacterial growth” value in experiment [4] was determined as 7.70%; in the experiment on P. multocida ATCC 43137, 5.33%. The “effect of sub-MIC pre-treatment on sensitivity of the bacteria” value in the experiment with M. haemolytica is recorded as “does not affect the sensitivity; also recorded: no effect on the sensitivity”; with P. multocida, “did not alter the sensitivity; also recorded: no effect on the sensitivity”. The half-inhibitory concentration (IC50) at arginase is 2200 nM.

A word on the MIC: it is the lowest concentration that inhibits growth of the organism. For orientation: IC50 means the concentration at which inhibition is half-maximal.
